Test results: ChEMBL document CHEMBL4765353, “Antitubercular polyhalogenated phenothiazines and phenoselenazine with reduced binding to CNS receptors” (Eur J Med Chem, 2020)
In brackets after ≈: the same amount, converted by molar mass.

Columns and labels:
[1] = Inhibition of NDH-2 in wild type Mycobacterium smegmatis mc24517 inverted membrane vesicles by NADH oxygen consumption assay; format: cell membranes, Mycolicibacterium smegmatis, Membrane vesicle
[2] = tested on: Mycobacterium tuberculosis; format: functional; conditions: 504 h, time 3 weeks, read-out: MIC100
[3] = tested on: Mycobacterium tuberculosis H37Rv; experiment: Inhibition of NDH-2 in Mycobacterium tuberculosis H37Rv inverted membrane vesicles over expressing ndh gene assessed as reduction in oxygen consumption at 50 uM by NADH oxygen consumption assay; format: cell membranes; conditions: Membrane vesicle
[4] = tested on: Mycolicibacterium smegmatis; experiment: Inhibition of NDH-2 in wild type Mycobacterium smegmatis mc24517 inverted membrane vesicles assessed as reduction in oxygen consumption at 50 uM by NADH oxygen consumption assay; format: cell membranes; conditions: Membrane vesicle
Vero = experiment: Cytotoxicity against African green monkey Vero cells assessed as decrease in cell viability incubated for 72 hrs by resazurin assay; format: cell-based; conditions: Chlorocebus sabaeus
[5] = tested on: Mycobacterium tuberculosis; format: functional; conditions: H37Rv, 240 h, time 10 day
D(2) dopamine receptor = D(2) dopamine receptor (Homo sapiens, UniProt P14416); experiment: Displacement of [3H]-Raclopride from human D2 receptor (unknown origin) expressed in HEK293 cell membranes; set-up: species or system Cell membrane
[6] = biological target: 5-hydroxytryptamine receptor 7 (Homo sapiens, UniProt P34969); experiment: Displacement of [3H]-5-CT from human 5HT7 receptor expressed in HEK293 cells; format: cell-based
[7] = biological target: 5-hydroxytryptamine receptor 6 (Homo sapiens, UniProt P50406); experiment: Displacement of [3H]-LSD from human 5HT6 receptor expressed in HEK293 cells; format: cell-based
[8] = Inhibition of NDH-2 in Mycobacterium tuberculosis H37Rv inverted membrane vesicles over expressing ndh gene by NADH oxygen consumption assay; format: cell membranes, Membrane vesicle
HepG2 [9] = experiment: Hepatotoxicity in human HepG2 cells at 10 uM incubated for 48 hrs by MTS assay; format: toxicity, cell-based; conditions: hepg2, 48 h
[10] = Metabolic stability in human liver microsomes by LC-MS/MS analysis; format: ADME, Microsome
[11] = tested on: Mycobacterium tuberculosis; experiment: Antitubercular activity against Mycobacterium tuberculosis H37Rv incubated for 4 days by Microplate Alamar Blue Assay; format: functional; conditions: 96 h, time 4 day
[12] = tested on: Mycobacterium tuberculosis; experiment: Antitubercular activity against Mycobacterium tuberculosis H37Rv incubated for 7 days by Microplate Alamar Blue Assay; format: functional; conditions: 168 h, time 7 day
[13] = biological target: 5-hydroxytryptamine receptor 2A (Homo sapiens, UniProt P28223); experiment: Displacement of [3H]-Ketanserin from human 5HT2A receptor expressed in CHO-K1 cells; format: ADME, cell-based
HepG2 [14] = experiment: Hepatotoxicity in human HepG2 cells at 50 uM incubated for 48 hrs by MTS assay; format: toxicity, cell-based; conditions: hepg2, 48 h

Chain of 5-hydroxytryptamine receptor 6 (P50406 whole entry): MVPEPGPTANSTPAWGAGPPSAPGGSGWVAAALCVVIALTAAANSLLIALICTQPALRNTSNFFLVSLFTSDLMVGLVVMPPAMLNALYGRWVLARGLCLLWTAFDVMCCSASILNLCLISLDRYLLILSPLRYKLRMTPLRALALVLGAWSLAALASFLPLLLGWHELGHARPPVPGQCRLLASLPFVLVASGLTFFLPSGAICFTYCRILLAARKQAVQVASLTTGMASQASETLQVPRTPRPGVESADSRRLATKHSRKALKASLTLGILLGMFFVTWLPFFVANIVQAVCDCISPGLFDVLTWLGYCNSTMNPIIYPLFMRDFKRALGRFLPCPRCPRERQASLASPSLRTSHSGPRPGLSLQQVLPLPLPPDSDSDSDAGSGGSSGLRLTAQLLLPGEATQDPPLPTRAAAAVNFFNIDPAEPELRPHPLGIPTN
Chain of 5-hydroxytryptamine receptor 2A (P28223 whole entry): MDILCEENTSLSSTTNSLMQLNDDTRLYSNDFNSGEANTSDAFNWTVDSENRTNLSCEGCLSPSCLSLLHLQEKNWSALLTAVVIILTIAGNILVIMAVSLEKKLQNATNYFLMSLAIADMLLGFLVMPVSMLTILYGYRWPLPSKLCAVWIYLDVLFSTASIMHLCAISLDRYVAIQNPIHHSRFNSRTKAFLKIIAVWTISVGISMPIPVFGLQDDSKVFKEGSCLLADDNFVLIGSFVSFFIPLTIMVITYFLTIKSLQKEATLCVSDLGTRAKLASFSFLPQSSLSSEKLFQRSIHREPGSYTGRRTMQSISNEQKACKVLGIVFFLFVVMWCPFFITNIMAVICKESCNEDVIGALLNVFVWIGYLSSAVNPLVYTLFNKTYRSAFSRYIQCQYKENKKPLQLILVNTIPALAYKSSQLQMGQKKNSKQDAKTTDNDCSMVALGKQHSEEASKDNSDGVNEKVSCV
Chain of 5-hydroxytryptamine receptor 7 (P34969 whole entry): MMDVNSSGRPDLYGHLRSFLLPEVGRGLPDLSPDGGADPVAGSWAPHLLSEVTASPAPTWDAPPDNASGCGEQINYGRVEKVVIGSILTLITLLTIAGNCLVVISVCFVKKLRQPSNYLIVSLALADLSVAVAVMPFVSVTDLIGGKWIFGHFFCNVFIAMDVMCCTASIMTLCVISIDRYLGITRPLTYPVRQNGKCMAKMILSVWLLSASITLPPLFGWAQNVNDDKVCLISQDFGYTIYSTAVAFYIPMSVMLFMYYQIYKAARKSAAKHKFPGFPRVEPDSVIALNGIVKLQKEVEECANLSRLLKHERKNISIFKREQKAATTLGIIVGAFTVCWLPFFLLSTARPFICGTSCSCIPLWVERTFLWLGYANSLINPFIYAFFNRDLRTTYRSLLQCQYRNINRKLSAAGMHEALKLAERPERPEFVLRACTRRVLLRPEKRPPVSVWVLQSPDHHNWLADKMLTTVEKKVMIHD
Chain of D(2) dopamine receptor (P14416 whole entry): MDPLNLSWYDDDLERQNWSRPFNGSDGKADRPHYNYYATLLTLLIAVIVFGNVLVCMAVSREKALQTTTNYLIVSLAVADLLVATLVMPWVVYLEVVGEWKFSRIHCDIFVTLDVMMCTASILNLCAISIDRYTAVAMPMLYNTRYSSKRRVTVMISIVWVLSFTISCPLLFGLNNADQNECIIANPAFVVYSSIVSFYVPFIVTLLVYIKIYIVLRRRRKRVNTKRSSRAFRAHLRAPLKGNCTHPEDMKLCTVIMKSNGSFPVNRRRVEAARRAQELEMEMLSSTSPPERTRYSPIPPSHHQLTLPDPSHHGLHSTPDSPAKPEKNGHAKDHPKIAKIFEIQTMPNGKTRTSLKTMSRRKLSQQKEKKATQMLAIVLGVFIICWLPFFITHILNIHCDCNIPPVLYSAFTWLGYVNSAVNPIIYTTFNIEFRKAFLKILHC

CN1CCCCC1CCN1c2ccc(Cl)cc2Sc2cc(Cl)ccc21.Cl (stereo not drawn)
IC50 [1]: 6.5 µg/mL | MIC [2]: 2.4 µg/mL | inhibition [3]: 59.3% | inhibition [4]: 85.4% | IC50 (Vero): 17.9 µg/mL

CN1CCCCC1CCN1c2ccc(Br)cc2Sc2cc(Br)ccc21.Cl (stereo not drawn)
IC50 [1]: 4.7 µg/mL | MIC90 [5]: 2.96 µg/mL | MIC [2]: 1.5 µg/mL | Ki (D(2) dopamine receptor): 688 nM | Ki [6]: 2150 nM | Ki [7]: 758 nM | IC50 [8]: 11.2 µg/mL | Activity (HepG2 [9]): Toxic | Stabilty [10]: Unstable | inhibition [3]: 84.8% | MIC90 [11]: 3.1 µg/mL | inhibition [4]: 93.7% | MIC90 [12]: 3.1 µg/mL | Ki [13]: 1750 nM | IC50 (Vero): 18.3 µg/mL

CN1CCCCC1CCN1c2ccc(Br)cc2Sc2cc(Br)cc(F)c21.Cl (stereo not drawn)
MIC [2]: 2.65 µg/mL | IC50 (Vero): 17.7 µg/mL

CN(C)CCCN1c2ccccc2Sc2ccc(Cl)cc21 [CHLORPROMAZINE]
MIC90 [5]: 0.08 µg/mL (≈ 0.251 µM) | MIC [2]: 4.41 µg/mL (≈ 13.8 µM) | IC50 (Vero): 26.5 µg/mL (≈ 83.2 µM)

CN1CCCCC1CCN1c2ccccc2Sc2cc(Cl)ccc21.Cl (stereo not drawn)
MIC [2]: 5.48 µg/mL | inhibition [3]: 12.5% | inhibition [4]: 47.5% | IC50 (Vero): 30.7 µg/mL

Brc1ccc2c(c1)Sc1cc(Br)ccc1N2CCCN1CCOCC1.Cl
MIC [2]: 5.52 µg/mL | IC50 (Vero): > 50 µg/mL

CN(C)CCCN1c2ccc(Cl)cc2Sc2cc(Cl)ccc21.Cl
MIC [2]: 2.51 µg/mL | IC50 (Vero): 16.7 µg/mL

NNC(=O)c1ccncc1 [ISONIAZID]
MIC90 [5]: 2.46 µg/mL (≈ 17.9 µM) | MIC [2]: 0.25 µg/mL (≈ 1.82 µM)

CN1CCCCC1CCN1c2c(Cl)cc(Cl)cc2Sc2cc(Cl)cc(Cl)c21.Cl (stereo not drawn)
IC50 [1]: 3.6 µg/mL | MIC90 [5]: 2.89 µg/mL | MIC [2]: 1.55 µg/mL | Ki (D(2) dopamine receptor): 639 nM | Ki [6]: 1000 nM | Ki [7]: 387 nM | IC50 [8]: 4.5 µg/mL | inhibition [3]: 74.2% | MIC90 [11]: 3.1 µg/mL | inhibition [4]: 92.4% | Activity (HepG2 [14]): Non-Toxic | MIC90 [12]: 3.1 µg/mL | Ki [13]: 1240 nM | IC50 (Vero): 26.9 µg/mL

Brc1ccc2c(c1)Sc1cc(Br)ccc1N2CCCN1CCCC1.Cl
MIC [2]: 1.45 µg/mL | IC50 (Vero): 17.1 µg/mL

CSc1ccc2c(c1)N(CCC1CCCCN1C)c1ccccc1S2 (stereo not drawn) [THIORIDAZINE]
MIC90 [5]: 5.29 µg/mL (≈ 14.3 µM) | MIC [2]: 2.4 µg/mL (≈ 6.48 µM) | Ki [6]: 181 nM | Ki [7]: 71 nM | IC50 (Vero): 17.8 µg/mL (≈ 48 µM)

CN(C)CCCN1c2ccccc2Sc2cc(Cl)ccc21.Cl
MIC [2]: 6.59 µg/mL | IC50 (Vero): 35.8 µg/mL

CN(C)CCCN1c2ccc(Cl)cc2Sc2cc(Cl)cc(Cl)c21.Cl
MIC [2]: 4.46 µg/mL | IC50 (Vero): 16.8 µg/mL

Cl.Clc1cc(Cl)c2c(c1)Sc1cc(Cl)cc(Cl)c1N2CCCN1CCCC1
MIC [2]: 1.5 µg/mL | IC50 (Vero): 18 µg/mL

CC(=O)NC[C@H]1CN(c2ccc(N3CCOCC3)c(F)c2)C(=O)O1 [LINEZOLID]
MIC [2]: 0.87 µg/mL (≈ 2.58 µM)

CN1CCCCC1CCN1c2ccc(Br)cc2[Se]c2cc(Br)ccc21.Cl (stereo not drawn)
MIC [2]: 2.35 µg/mL | Ki (D(2) dopamine receptor): 367 nM | Ki [6]: 2340 nM | Ki [7]: 222 nM | Activity (HepG2 [9]): Non-Toxic | Stabilty [10]: Stable | Ki [13]: 1760 nM | IC50 (Vero): 17.6 µg/mL

CO[C@H]1/C=C/O[C@@]2(C)Oc3c(C)c(O)c4c(O)c(c(/C=N/N5CCN(C)CC5)c(O)c4c3C2=O)NC(=O)/C(C)=C\C=C\[C@H](C)[C@H](O)[C@@H](C)[C@@H](O)[C@@H](C)[C@H](OC(C)=O)[C@@H]1C [RIFAMPIN]
MIC90 [5]: > 128 µg/mL | MIC [2]: 0.01 µg/mL (≈ 0.0122 µM) | MIC90 [11]: 0.06 µg/mL (≈ 0.0729 µM) | MIC90 [12]: 0.06 µg/mL (≈ 0.0729 µM)

CN(C)CCCN1c2ccc(Br)cc2Sc2cc(Br)cc(F)c21.Cl
MIC [2]: 5.7 µg/mL | IC50 (Vero): 34.7 µg/mL

Brc1ccc2c(c1)Sc1cc(Br)ccc1N2CCN1CCCC1
MIC [2]: 2.57 µg/mL (≈ 5.66 µM) | IC50 (Vero): 9.42 µg/mL (≈ 20.7 µM)

Brc1ccc2c(c1)Sc1cc(Br)ccc1N2Cc1ccccn1.Cl
MIC [2]: > 100 µg/mL | IC50 (Vero): > 100 µg/mL

Brc1ccc2c(c1)Sc1cc(Br)ccc1N2CCN1CCOCC1.Cl
MIC [2]: > 100 µg/mL | IC50 (Vero): > 100 µg/mL

N=c1sc(-c2ccc(F)cc2)nn1CC(=O)N1c2ccc(Br)cc2Sc2cc(Br)ccc21
MIC [2]: > 50 µg/mL

CN(C)CCCN1c2ccc(Br)cc2Sc2cc(Br)ccc21.Cl
MIC [2]: 2.38 µg/mL | inhibition [3]: 40.7% | inhibition [4]: 69.4% | IC50 (Vero): 27 µg/mL

CCCCCCCc1cc(O)c2ccccc2[n+]1[O-]
inhibition [3]: 29.2% | inhibition [4]: 18.1%

Cl.Clc1cc(Cl)c2c(c1)Sc1cc(Cl)cc(Cl)c1N2CCCN1CCOCC1
MIC [2]: > 50 µg/mL

CN1CCCCC1CCN1c2ccc(Cl)cc2Sc2cc(Cl)cc(Cl)c21.Cl (stereo not drawn)
MIC [2]: 2.67 µg/mL | IC50 (Vero): 19.2 µg/mL
